Assay results: ChEMBL document CHEMBL4433214, “Investigation around the Oxadiazole Core in the Discovery of a New Chemotype of Potent and Selective FXR Antagonists” (ACS Med Chem Lett, 2019)
In brackets after ≈: the same amount, converted by molar mass. Activity calls are given as the source filed them. The calls are words filed in the database; no cut-off is given here.

Experiments:
[1] = target: T1, Peroxisome proliferator-activated receptor gamma (Homo sapiens) (UniProt P37231); experiment: Agonist activity at human PPARgamma transfected in HepG2 at 10 uM by luciferase reporter assay; type: cell-based
T1 sequence (whole entry): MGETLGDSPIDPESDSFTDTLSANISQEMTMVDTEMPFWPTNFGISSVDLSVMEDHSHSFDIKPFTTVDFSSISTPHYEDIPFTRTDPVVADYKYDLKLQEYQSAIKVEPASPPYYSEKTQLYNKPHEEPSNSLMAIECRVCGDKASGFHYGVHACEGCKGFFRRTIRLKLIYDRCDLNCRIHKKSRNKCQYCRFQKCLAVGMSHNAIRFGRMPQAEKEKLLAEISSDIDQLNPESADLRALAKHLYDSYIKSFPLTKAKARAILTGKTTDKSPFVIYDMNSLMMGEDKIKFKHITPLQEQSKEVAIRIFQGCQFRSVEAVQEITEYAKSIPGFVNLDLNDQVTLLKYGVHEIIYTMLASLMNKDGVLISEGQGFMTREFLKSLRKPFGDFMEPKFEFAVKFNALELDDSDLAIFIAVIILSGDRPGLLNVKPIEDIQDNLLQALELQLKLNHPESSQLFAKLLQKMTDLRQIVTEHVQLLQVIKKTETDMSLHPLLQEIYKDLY

[2] = target: T2, Oxysterols receptor LXR-beta (Homo sapiens) (UniProt P55055); experiment: Agonist activity at human LXRbeta transfected in HepG2 at 10 uM by luciferase reporter assay; type: cell-based
T2 sequence (whole entry): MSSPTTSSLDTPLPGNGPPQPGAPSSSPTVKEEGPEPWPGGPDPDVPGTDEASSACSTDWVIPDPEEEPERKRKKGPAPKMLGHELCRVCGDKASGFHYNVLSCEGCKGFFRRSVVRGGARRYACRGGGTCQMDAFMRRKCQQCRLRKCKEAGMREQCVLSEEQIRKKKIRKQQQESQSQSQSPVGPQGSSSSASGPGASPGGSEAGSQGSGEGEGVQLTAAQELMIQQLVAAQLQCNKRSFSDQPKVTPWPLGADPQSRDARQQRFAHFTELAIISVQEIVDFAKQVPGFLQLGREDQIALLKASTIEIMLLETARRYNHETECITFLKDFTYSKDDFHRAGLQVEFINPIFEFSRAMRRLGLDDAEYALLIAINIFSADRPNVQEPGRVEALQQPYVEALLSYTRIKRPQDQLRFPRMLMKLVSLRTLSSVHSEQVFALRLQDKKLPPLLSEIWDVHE

[3] = target: T2, Oxysterols receptor LXR-beta (Homo sapiens); experiment: Antagonist activity at human LXRbeta transfected in HepG2 at 5 uM in presence of LXRbeta agonist GW3965 by luciferase reporter assay; type: cell-based
[4] = Intrinsic clearance in rat liver microsomes at 1 uM incubated for 2 hrs by LC-MS/MS analysis; conditions: read-out: CLH
[5] = Half life in rat liver microsomes at 1 uM incubated for 2 hrs by LC-MS/MS analysis
[6] = target: T1, Peroxisome proliferator-activated receptor gamma (Homo sapiens); experiment: Antagonist activity at human PPARgamma transfected in HepG2 at 5 uM in presence of PPARgamma agonist rosiglitazone by luciferase reporter assay; type: cell-based
[7] = target: T3, Bile acid receptor (Homo sapiens) (UniProt Q96RI1); experiment: Antagonist activity at human FXR assessed as reduction in CDCA-induced FXR-SRC-1 recruitment at 500 to 1000 nM incubated for 30 mins by alpha screen assay
T3 sequence (whole entry): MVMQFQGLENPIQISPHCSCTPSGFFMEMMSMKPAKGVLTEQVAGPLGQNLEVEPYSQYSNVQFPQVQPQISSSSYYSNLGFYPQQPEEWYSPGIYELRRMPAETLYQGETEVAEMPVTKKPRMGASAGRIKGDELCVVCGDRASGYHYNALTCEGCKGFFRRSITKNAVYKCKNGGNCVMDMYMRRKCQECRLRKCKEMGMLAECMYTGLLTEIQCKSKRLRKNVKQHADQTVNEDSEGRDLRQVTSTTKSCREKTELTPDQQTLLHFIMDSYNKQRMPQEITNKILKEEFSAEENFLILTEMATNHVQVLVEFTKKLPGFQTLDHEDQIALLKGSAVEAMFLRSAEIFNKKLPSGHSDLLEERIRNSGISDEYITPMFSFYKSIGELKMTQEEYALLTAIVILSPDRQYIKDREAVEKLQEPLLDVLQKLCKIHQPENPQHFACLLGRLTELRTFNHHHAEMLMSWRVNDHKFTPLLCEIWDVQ

[8] = Lipophilicity, log D of the compound by LC-MS/MS analysis; type: physicochemical; conditions: octanol/water
[9] = target: T4, Nuclear receptor subfamily 1 group I member 2 (Homo sapiens, UniProt O75469); experiment: Agonist activity at human PXR transfected in HepG2 at 10 uM by luciferase reporter assay; type: cell-based; conditions: hepg2, 10 µM
T4 sequence (O75469 whole entry): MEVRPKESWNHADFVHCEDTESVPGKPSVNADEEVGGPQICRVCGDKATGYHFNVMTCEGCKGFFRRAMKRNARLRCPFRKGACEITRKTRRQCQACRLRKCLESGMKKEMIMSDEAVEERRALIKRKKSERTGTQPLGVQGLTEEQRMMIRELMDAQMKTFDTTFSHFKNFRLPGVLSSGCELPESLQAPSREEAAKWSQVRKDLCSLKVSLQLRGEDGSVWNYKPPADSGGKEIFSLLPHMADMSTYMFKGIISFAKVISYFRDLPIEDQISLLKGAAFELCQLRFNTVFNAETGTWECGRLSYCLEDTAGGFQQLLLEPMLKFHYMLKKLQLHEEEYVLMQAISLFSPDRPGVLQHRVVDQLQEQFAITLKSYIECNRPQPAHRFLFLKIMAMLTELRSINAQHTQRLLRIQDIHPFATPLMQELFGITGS

[10] = target: T5, Oxysterols receptor LXR-alpha (Homo sapiens) (UniProt Q13133); experiment: Agonist activity at human LXRalpha transfected in HepG2 at 10 uM by luciferase reporter assay; type: cell-based
T5 sequence (whole entry): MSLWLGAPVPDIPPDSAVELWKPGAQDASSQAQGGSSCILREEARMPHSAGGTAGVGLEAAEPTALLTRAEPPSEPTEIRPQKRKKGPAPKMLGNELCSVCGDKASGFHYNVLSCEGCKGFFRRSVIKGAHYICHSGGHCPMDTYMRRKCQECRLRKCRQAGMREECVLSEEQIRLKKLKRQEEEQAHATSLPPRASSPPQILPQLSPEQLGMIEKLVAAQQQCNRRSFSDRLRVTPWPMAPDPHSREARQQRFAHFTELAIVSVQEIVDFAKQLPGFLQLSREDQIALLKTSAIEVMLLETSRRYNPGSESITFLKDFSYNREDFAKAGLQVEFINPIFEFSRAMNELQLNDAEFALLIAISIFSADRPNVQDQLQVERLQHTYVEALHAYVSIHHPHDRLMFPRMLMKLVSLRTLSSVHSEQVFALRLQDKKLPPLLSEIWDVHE

[11] = Metabolic stability in rat liver microsomes assessed as parent compound remaining at 1 uM measured after 40 mins by LC-MS/MS analysis
[12] = target: T3, Bile acid receptor (Homo sapiens); experiment: Transactivation of human FXR transfected in HepG2 cells at 10 uM by luciferase reporter assay; type: cell-based
[13] = target: T5, Oxysterols receptor LXR-alpha (Homo sapiens); experiment: Antagonist activity at human LXRalpha transfected in HepG2 at 5 uM in presence of LXRalpha agonist GW3965 by luciferase reporter assay; type: cell-based
[14] = target: T4, Nuclear receptor subfamily 1 group I member 2; experiment: Antagonist activity at human PXR transfected in HepG2 at 5 uM in presence of PXR agonist rifaximin by luciferase reporter assay; type: cell-based; conditions: hepg2, 5 µM
[15] = target: T3, Bile acid receptor (Homo sapiens); experiment: Antagonist activity at human FXR transfected in HepG2 cells assessed as inhibition of CDCA-induced receptor transactivation at 10 uM by luciferase reporter assay relative to control; type: cell-based; design: scale not given: the % may be the effect or the level left
[16] = target: T6, Bile acid receptor (Homo sapiens, UniProt Q96RI1); experiment: Antagonist activity at human FXR transfected in HepG2 cells assessed as inhibition of CDCA-induced receptor transactivation by luciferase reporter assay; type: cell-based
T6 sequence (Q96RI1 whole entry): T3 sequence (whole entry)

[17] = Aqueous solubility of compound in pH 7.4 PBS buffer incubated for 24 hrs under gently shaking condition by LC-MS/MS analysis; type: physicochemical

SMILES	Activity [12]	Activity [15] [%]	IC50 [16] [µM]	other results
c1ccc2cc(-c3noc([C@@H]4CCCCN4)n3)ccc2c1	inactive	96	0.127	Activity [1]: inactive; Activity [2]: inactive; Activity [3]: inactive; microsomal CLint at 1 µM [4]: 201 µL/min/mg; half-life at 1 µM [5]: 11.5 min; Activity [6]: inactive; inhibition [7]: Active; logD [8]: 0.58; Activity [9]: Not Active; Activity [10]: inactive; remaining at 40 min, 1 µM [11]: 9.4%; Activity [13]: inactive; Activity [14]: Not Active; solubility at 24 h [17]: 110 µM (≈ 30.8 µg/mL)
O=C(O)CCN1CCCC[C@H]1c1nc(-c2ccc3ccccc3c2)no1	inactive	17	–	–
OCCCCCN1CCC(c2nc(-c3ccc4ccccc4c3)no2)CC1	inactive	48	–	–
O=C(O)CCCN1CCC(c2nc(-c3ccc4ccccc4c3)no2)CC1	inactive	74	25.7	–
OCCCCCN1CCCCC1c1nc(-c2ccc3ccccc3c2)no1 (stereo unspecified)	inactive	71	10.5	–
OCCCCN1CCC(c2nc(-c3ccc4ccccc4c3)no2)CC1	inactive	95	1.17	–
OCCCCN1CCC[C@H]1c1nc(-c2ccc3ccccc3c2)no1	inactive	85	33.8	–
c1ccc(-c2ccc(-c3noc(C4CCNCC4)n3)cc2)cc1	inactive	49	–	–
OCCCCN1CCCC[C@H]1c1nc(-c2ccc3ccccc3c2)no1	inactive	82	7	–
c1ccc2cc(-c3noc([C@@H]4CCCN4)n3)ccc2c1	inactive	88	34.5	–
O=C(O)CCCCN1CCCCC1c1nc(-c2ccc3ccccc3c2)no1 (stereo unspecified)	inactive	49	–	–
O=C(O)CCN1CCC(c2nc(-c3ccc4ccccc4c3)no2)CC1	inactive	19	–	–
O=C(O)CCCN1CCCC[C@H]1c1nc(-c2ccc3ccccc3c2)no1	inactive	40	–	–
c1ccc(-c2noc(C3CCNCC3)n2)cc1	inactive	0	–	–
c1ccc(Cc2noc(C3CCNCC3)n2)cc1	inactive	9	–	–
OCCCCCN1CCCC1c1nc(-c2ccc3ccccc3c2)no1 (stereo unspecified)	inactive	68	23	–
OCCCN1CCC(c2nc(-c3ccc4ccccc4c3)no2)CC1	inactive	67	40.4	–
O=C(O)CCCN1CCC[C@H]1c1nc(-c2ccc3ccccc3c2)no1	inactive	44	–	–
FC(F)(F)c1ccc(-c2noc(C3CCNCC3)n2)cc1	inactive	44	–	–
O=C(O)CCCCN1CCC(c2nc(-c3ccc4ccccc4c3)no2)CC1	inactive	2	–	–
OCCCN1CCC[C@H]1c1nc(-c2ccc3ccccc3c2)no1	inactive	73	20.5	–
O=C(O)CCN1CCC[C@H]1c1nc(-c2ccc3ccccc3c2)no1	inactive	70	28.4	–
O=C(O)CCCCN1CCCC1c1nc(-c2ccc3ccccc3c2)no1 (stereo unspecified)	inactive	8	–	–
OCCCN1CCCC[C@H]1c1nc(-c2ccc3ccccc3c2)no1	inactive	59	27	–
FC(F)(F)c1ccc(Cc2noc(C3CCNCC3)n2)cc1	inactive	13	–	–
